Assay results reported in a melting point compilation (Tetko et al.; mined from patent text by program, amines drawn as free bases though some values may be those of a salt).

Row | melting point | Compound
1 | 77 to 78 °C | CCOC(=O)c1conc1-c1ccc(Cl)c(F)c1
2 | 114 °C | CC(C)(C)C(=O)COC(=O)C1(C(=O)OCc2ccccc2)CCCN(C(=O)OCC(Cl)(Cl)Cl)C1 (stereo unspecified)
3 | 250 to 251 °C | c1ccc2c(c1)c(-c1nnn[nH]1)cc1nnnn12
4 | 126 to 129 °C | CCOC(=O)C1=C(COCCNCC(N)=O)NC(C)=C(C(=O)OC)C1c1ccccc1Cl (stereo unspecified)
5 | 51.5 to 53 °C | Cc1ccc(C)c(OCc2ccccc2CC#N)c1
6 | 194 to 196 °C | Cc1c(F)c([N+](=O)[O-])cc2oc(=O)[nH]c12
7 | 229 to 230 °C | O=C(O)c1cnn(-c2nc(-c3cccc(C(F)(F)F)c3)cs2)c1
8 | 77 to 79 °C | CCCCCc1c(C(C)C)nc(C(C)C)c(C(C)CO)c1-c1ccc(F)cc1 (stereo unspecified)
9 | 222 to 223 °C | Cc1c(-c2ccccc2)nc2ccc(-c3cccc(CO)c3)cn12
10 | 180 to 182 °C | C[C@@H]1O[C@](/C=C/C2CC2)(C(F)(F)F)c2cc(F)ccc2NC1=O (relative stereo)
11 | 41 to 43 °C | O=C(Cl)CC(c1ccccc1)c1ccccc1
12 | 63 to 64 °C | CC(C)c1ccc(Cc2c(N)nc(SCCN3CCNCC3)nc2N)cc1
13 | 104 to 106 °C | CCCc1nn(C)c2c(=O)n(CCOc3ccc(SC(C)(C)C(=O)O)cc3)c(CC)nc12
14 | 248 to 249 °C | COc1ccc(-c2cc(=O)[nH]cn2)cc1OC
15 | 209 to 211 °C | O=C(O)c1cnn(-c2cccc(Cl)c2)c1Cl
16 | 212 °C | CN(CCOc1ccc(C=C2SC(=O)NC2=O)cc1)c1nccs1
17 | 108 °C | COc1cccc(NC=C2C(=O)OC(C)(C)OC2=O)c1
18 | 118 °C | CC(C)N(O)C(=O)CCC1C=CC2=C(Cc3ccccc3CO2)C1=O (stereo unspecified)
19 | 97 to 98 °C | COc1ccc(CCn2ccc3ccc(-c4cccc(C(=O)NCCN(C)C)c4)nc32)cc1OC
20 | 160 to 161 °C | CN(C)c1ncc(-c2cccc(Nc3ccc(-c4ccco4)cc3[N+](=O)[O-])c2)cn1
21 | 112 to 114 °C | CCc1ccc2c(c1)CC(NC(=O)C(F)(F)F)C2 (stereo unspecified)
22 | 149 to 150 °C | C[C@H]([C@](O)(Cn1cncn1)c1ccc(F)cc1F)S(=O)(=O)N1CCCC1
23 | 168 to 170 °C | CN(C)c1ccc(C=CC(O)c2cnc3sc4c(n23)CCCCC4)cc1 (stereo unspecified)
24 | 205 to 207 °C | Nc1sc(-c2cccc(F)c2)c(CN(C2CCCCC2)C2CCCCC2)c1C(=O)c1ccc(Cl)cc1

Row | melting point | Compound
25 | 94 to 96 °C | CCOc1cc2c(cc1OCC)C(C(C#N)SCCO)=NCC2 (stereo unspecified)
26 | 173 to 174 °C | O=S(=O)(NCC(O)(Cn1cncn1)c1ccc(Cl)cc1Cl)c1cc(Cl)ccc1Cl (stereo unspecified)
27 | 188 to 190 °C | Nc1nc(Cl)nc2c1ncn2COCCO
28 | 107 to 109 °C | Cc1ccc(S(=O)(=O)OCCc2nc(-c3cccc(Br)c3)oc2C)cc1
29 | 134 to 136 °C | CC1OC(n2cc(F)c(NC(=O)OC3CCCCC3)nc2=O)C(O)C1O (stereo unspecified)
30 | 130 to 132 °C | OC(c1cccnn1)c1ccc(Cl)cc1Cl (stereo unspecified)
31 | 182 to 183 °C | COC(=O)C(=Cc1c[nH]c2cc(C)ccc12)NC(C)=O
32 | 146 to 148 °C | COc1ccc(-c2coc(C(=O)NNC(=O)c3ccc(O)c(C#N)c3)c2-c2ccccc2)cc1
33 | 176 to 179 °C | CC1(C)COC(=O)N1c1nc(-c2ccc([N+](=O)[O-])cc2)cs1
34 | 250 to 251 °C | CCn1c(=O)c2c(nc(/C=C/c3ccc(OS(=O)(=O)C(F)(F)F)c(OC)c3)n2C)n(CC)c1=O
35 | 194 to 195 °C | CCCCOc1ncc(C(C)=O)cc1-c1nc2c(CC)n(C3CCN(C(=O)OC(C)(C)C)CC3)nc2c(=O)[nH]1
36 | 90.2 °C | Cc1c(C(F)(F)F)cnn(-c2cc(OCC3CCCCC3)c(Cl)cc2F)c1=O
37 | 222 °C | CC1=Nc2c3cc(-c4ccccc4)nc-3ccn2C1
38 | 55 to 56 °C | Cc1c(C)c2c(c(C)c1OCc1ccccc1)CC[C@@](C)(CCO)O2
39 | 235 to 236 °C | CCc1cnc2c(NC(=O)c3c(Cl)cccc3Cl)cccc2c1CCC(N)=O
40 | 181 °C | Nc1ccc(OCOc2ccc(N)cc2[N+](=O)[O-])c([N+](=O)[O-])c1
41 | 195 °C | COc1cc(C(F)(F)F)cc(Cl)c1-n1nc(C#N)c(S(=O)C(F)(F)F)c1N (stereo unspecified)
42 | 154 to 155 °C | Cc1oc(-c2ccncc2)nc1COc1ccc(Cn2cc(CCC(=O)O)c(-c3ccccc3)n2)cc1
43 | 266 to 268 °C | O=C1c2ccccc2C(=O)N1CC(=O)N1c2ccc(F)cc2N(Cc2ccccc2)C(=O)C2CCC[C@H]21 (single isomer, unassigned)
44 | 133 to 134 °C | CC[N+](CC)(CC)C1CC(=O)N1C(C(=O)OCc1ccc([N+](=O)[O-])cc1)=C([O-])CCOC(=O)c1ccccc1 (stereo unspecified)
45 | 133 to 134 °C | CCOC(=O)C1=C(COC)NC(COC)=C(C(=O)OCC)C1c1ccccc1C(F)(F)F
46 | 105 to 107 °C | N#CCOc1cc2ccccc2cc1I
47 | 153 to 155 °C | CC(=O)OCc1ccc2oc(=O)c(C(=O)Oc3cncc(Cl)c3)cc2c1
48 | 139 to 140 °C | Cc1cc2c(cc1C)C(C(F)(F)F)(C(F)(F)C(F)(F)F)c1cc(C)c(C)cc1O2

Row | melting point | Compound
49 | 75 to 77 °C | CSCC(=O)Nc1cccc(C(F)(F)F)c1
50 | 123 to 125 °C | OCc1cn(-c2c(Cl)cc(C(F)(F)F)cc2Cl)nn1
51 | 130 to 132 °C | c1ccc(OCCSCc2nnc(-c3ccc4[nH]ccc4c3)o2)cc1
52 | 126 to 127 °C | O=S(=O)(c1ccc(Cl)cc1)C(c1ccncc1)c1cc(F)ccc1F (stereo unspecified)
53 | 208 to 209 °C | CNC(=O)Nc1nc(C(C)c2ccc(-c3ccccc3)c(F)c2)cs1 (stereo unspecified)
54 | 190 to 192 °C | CNC1([C@@H]2CCN(c3ccc4c(=O)c(C(=O)O)cn(C5CC5)c4c3C)C2)CC1
55 | 66 to 68 °C | CC(C)COC(NC(=O)OCc1ccccc1)C(=O)O (stereo unspecified)
56 | 76 to 78 °C | CN(C)CCCC(=O)Cc1ccc2c(c1)Cc1cccnc1O2
57 | 146 to 147 °C | CC(C)(C)c1cc(C(O)C#Cc2ccc(C(=O)O)c(O)c2)cc(C(C)(C)C)c1OCOCC[Si](C)(C)C (stereo unspecified)
58 | 57 to 58 °C | CC(C)(C)OC(=O)[C@@H]1CCCN1C(=O)CCS
59 | 132 to 133 °C | COC(=O)C1CCN2C(=O)C(=O)c3cc(Cl)cc1c32 (stereo unspecified)
60 | 45 to 50 °C | CC(=O)c1ccc(Oc2cccnc2)cc1
61 | 147 °C | CCNC(=S)NS(=O)(=O)c1cc2c(cc1OC)OCCC2CNC(=O)N1CC(C)=C(CC)C1=O (stereo unspecified)
62 | 104 to 106 °C | O=S(=O)(c1ccccc1)n1c(-c2c(F)cccc2F)nc2ccccc21
63 | 237 to 238 °C | C[C@@H](n1cnc2c(cnn2-c2ccc(Cl)cc2)c1=O)[C@](O)(Cn1cncn1)c1ccc(F)cc1F
64 | 238 °C | C[C@H](O)CNc1cc(Oc2ccc(F)cc2F)nc2[nH]nc(-c3ccccc3Cl)c12
65 | 253 to 255 °C | Nc1sc2c(c1C(=O)c1ccc(I)c3ccccc13)CCC2
66 | 114 to 116 °C | Cc1c(N)c(C#N)cc(F)c1F
67 | 185 to 189 °C | C[C@@H](N(CCO)C(=O)c1ccc(C(F)(F)F)cc1)[C@](O)(Cn1cncn1)c1ccc(Cl)cc1Cl (relative stereo)
68 | 214 to 216 °C | CN(C)C(=O)N1CCN(Cc2ccc3c(c2)-c2[nH]nc(-c4ccsc4)c2C3)CC1
69 | 243 to 244 °C | CCCc1nc2c(N)nc3ccccc3c2n1CC1(O)CCSCC1
70 | 126 to 128 °C | COC(=O)C(Cc1ccc(OCCc2nc(-c3ccccc3)oc2C)cc1)C(=O)NC(C)=O (stereo unspecified)
71 | 205 °C | O=C(NC1CCC(O)CC1)NC12CC3CC(CC(C3)C1)C2 (stereo unspecified)
72 | 252 °C | CC1c2c(Cl)cccc2N=C2NC(=O)CN21 (stereo unspecified)

Row | melting point | Compound
73 | 162 °C | CS(=O)(=O)c1ccc2c(c1)[C@@H](Oc1ccc(C#N)cc1Cl)[C@H](N1CCC[C@@H](N)C1)C2
74 | 152 to 153 °C | COc1ccc(S(=O)(=O)N(CCO)c2cccc(F)c2/C=C/c2ccncc2)cc1
75 | 280 to 285 °C | C[C@@H](n1cnc2cc(-c3ccc(C(N)=O)cc3)sc2c1=O)[C@](O)(Cn1cncn1)c1ccc(F)cc1F
76 | 173 to 174 °C | CC1(C)CCc2c(N3CCCC3)nc3sc4c(NCCN5CCOCC5)ncnc4c3c2C1
77 | 123 to 124 °C | C[C@]12CCC(=O)N[C@@H]1CCc1cc(-c3ccc([N+](=O)[O-])cn3)ccc12
78 | 164 to 181 °C | NC1=NC(c2ccc(O)cc2)(c2cccc(-c3cccnc3F)c2)C2=NCCCN12 (stereo unspecified)
79 | 248 to 249 °C | O=C(Nc1cccnn1)N1CCN(c2nccc(-c3cccc(F)c3F)n2)CC1
80 | 146 to 148 °C | COc1cccc(C(=O)Nc2ccc(N3CCOCC3)cc2C(C)=O)c1OC
81 | 128 to 132 °C | O=C(O)c1ccc(S(=O)(=O)c2ccccc2)cc1
82 | 138 to 142 °C | COCc1cc(C(=O)NC(C)(C)C)c(C(=O)OC)cn1
83 | 176 to 180 °C | COC(=O)[C@H]1NC(=O)[C@H]1NC(=O)Cc1ccccc1 (relative stereo)
84 | 126 to 128 °C | CC(=O)c1ccc(OCCCN2CCC(c3noc4cc(F)ccc34)CC2)c(Br)c1
85 | 170 to 171 °C | COC(=O)CC1=C(C)C(=Cc2ccc(S(N)(=O)=O)cc2)c2ccc(OC)cc21
86 | 254 to 256 °C | Cc1cc(C)c(NC(=O)NC2CC2c2ccc(-c3ncn(-c4ccc(OC(F)(F)F)cc4)n3)cc2)c(C)c1 (stereo unspecified)
87 | 146 to 148 °C | CCC1Cc2cc(OCC(=O)O)cc(Br)c2C1=O (stereo unspecified)
88 | 162 °C | C(=C\c1ccc2c(c1)COC(N[C@@H]1CCc3ccccc31)=N2)/c1ccccc1
89 | 273 to 276 °C | O=C(C=CC=C(c1ccc(Cl)cc1)c1ccc(Cl)cc1)Nc1ccc(C(=O)O)cc1
90 | 205 °C | Cc1cc(S(C)(=O)=O)ccc1-n1nc(C(F)(F)F)cc1-c1ccc(-c2ccco2)cc1
91 | 135 to 136 °C | CCN1CCN(c2nc(-c3ccc(OCCO)cc3)cc3ccsc23)CC1
92 | 137 °C | Nc1cc(-c2nc3ccccn3c2Br)c(F)cc1F
93 | 154 to 155 °C | Cc1nc(-n2cnn(CCOc3ccc(F)cc3)c2=O)sc1C(=O)NCc1cccnc1
94 | 157 to 158 °C | Cn1cc(OS(C)(=O)=O)c(=O)c2ccc(Cl)cc21

Row | Compound | melting point
95 | Cc1cccc(NC(=O)NC2N=C(c3ccccc3F)c3ccccc3N(Cc3cccnc3)C2=O)c1 (racemic) | 242 to 243 °C
96 | Cc1sc(C)c2c1CCC=C2c1c[nH]cn1 | 179 to 180 °C
